# According to US20250122211A1, “NITROGEN-CONTAINING TETRACYCLIC COMPOUND, PREPARATION METHOD THEREFOR, AND MEDICAL USE THEREOF” (Jiangsu Hengrui Pharmaceuticals Co., Ltd., priority 2021, published 2025):
# Where two headings read alike, the source gives them in different places.
# Key:
# Type in all cases: cell-based
# [1] = system: MIA PaCa-2 cells; assay: MIA PaCa-2 cell proliferation assay (CellTiter-Glo); settings: 72 h incubation, read-out: IC50 (nM), inhibitory activity against MIA PaCa-2 cell proliferation
# Experimental: The inhibitory activity of the compounds of the present disclosure against MIA PaCa-2 cell proliferation was measured. Below is a brief description of the experimental method:
# MIA PaCa-2 cells (ATCC, CRL-1420) were cultured in DMEM/HIGH GLUCOSE medium (GE, SH30243.01) containing 10% fetal bovine serum (Corning, 35-076-CV) and 2.5% horse serum (Beyotime Biological Tech., C0262) (i.e., complete medium). On the first day of the experiment, MIA PaCa-2 cells were seeded into a 96-well plate at a density of 500 cells/well using complete medium, with 90 µL of cell suspension per well, and the plate was incubated overnight in a 37° C., 5% CO2 cell incubator. On the second day, the test compounds, prepared in complete medium and serially diluted, were added at 10 μL/well. The final concentrations of the compounds were 9 concentration points obtained by a 5-fold serial dilution from 10 μM. A blank control containing 0.5% DMSO was set up. The plate was incubated for 72 h in a 37° C., 5% CO2 cell incubator. On the fifth day, the 96-well cell plate was removed from the incubator, and CellTiter-Glo® Luminescent Cell Viability Assay (Promega, G7573) was added at 50 μL/well. After 10 min of room temperature incubation, luminescence signals were measured using a multifunctional microplate reader (PerkinElmer, EnVision2015). The IC50 values for the inhibitory activity of the compounds were calculated using Graphpad Prism software.
# [2] = system: H358 cells; assay: H358 proliferation assay (CellTiter-Glo); settings: 120 h incubation, read-out: IC50 (nM), inhibitory activity against H358 cell proliferation
# Experimental: The inhibitory activity of the compounds of the present disclosure against H358 cell proliferation was measured. Below is a brief description of the experimental method: H358 cells (ATCC, CRL-5807) were cultured in RPMI1640 medium (Hyclone, SH30809.01) containing 10% fetal bovine serum (Corning, 35-076-CV) (i.e., complete medium). On the first day of the experiment, H358 cells were seeded into a 96-well plate at a density of 1200 cells/well using complete medium, with 100 μL of cell suspension per well, and the plate was incubated overnight in a 37° C., 5% CO2 cell incubator. On the second day, the test compounds, prepared in complete medium and serially diluted, were added at 10 μL/well. The final concentrations of the compounds were 9 concentration points obtained by a 5-fold serial dilution from 10 μM. A blank control containing 0.5% DMSO was set up. The plate was incubated for 120 h in a 37° C., 5% CO2 cell incubator. On the seventh day, the 96-well cell plate was removed from the incubator, and CellTiter-Glo® Luminescent Cell Viability Assay (Promega, G7573) was added at 50 μL/well. After 10 min of room temperature incubation, luminescence signals were measured using a multifunctional microplate reader (PerkinElmer, EnVision® 2105). The IC50 values for the inhibitory activity of the compounds were calculated using Graphpad Prism software.
# [3] = system: ERK phosphorylation in H358 cells; assay: H358 cell ERK phosphorylation inhibition assay (HTRF pERK/total ERK); settings: 3 h incubation, ratio of pERK/total ERK, read-out: IC50 (nM), inhibitory effects on ERK phosphorylation in H358 cells
# Experimental: The inhibitory effects of the compounds of the present disclosure on ERK phosphorylation in H358 cells were measured. Below is a brief description of the experimental method: H358 cells (ATCC, CRL-5807) were cultured in RPMI1640 medium (Hyclone, SH30809.01) containing 10% fetal bovine serum (Corning, 35-076-CV) (i.e., complete medium). On the first day of the experiment, H358 cells were seeded into a 96-well plate at a density of 25,000 cells/well using complete medium, with 190 μL of cell suspension per well, and the plate was incubated overnight in a 37° C., 5% CO2 cell incubator. On the second day, the test compounds, prepared in complete medium and serially diluted, were added at 10 μL/well. The final concentrations of the compounds were 9 concentration points obtained by a 6-fold serial dilution from 10 μM. A blank control containing 0.5% DMSO was set up. The plate was incubated for 3 h in a 37° C., 5% CO2 cell incubator. After 3 h, the 96-well cell culture plate was removed from the incubator, and the culture medium was pipetted off. PBS (Shanghai BasalMedia Technologies Co., Ltd., B320) was added at 200 μL/well for a single wash. PBS was pipetted off, and lysis buffer (Cisbio, 64KL1FDF) containing a blocking agent (Cisbio, 64KB1AAC) was added at 50 μL/well. The plate was incubated on a shaker for 30 min at room temperature to lyse the cells. After lysis, the lysates were well mixed by pipetting, and 16 μL of lysate was transferred from each well to two HTRF 96-well assay plates (Cisbio, 66PL96100). Subsequently, 4 μL of a premixed phospho-ERK1/2 antibody solution (Cisbio, 64AERPEG) or 4 μL of a premixed total-ERK1/2 antibody solution (Cisbio, 64NRKPEG) was added to each of the plates. The plates were sealed with a plate sealer film, centrifuged for 1 min in a microplate centrifuge, and incubated overnight at room temperature in the dark. On the third day, fluorescence values at an excitation wavelength of 337 nm and emission wavelengths of 665 nm and 620 nm were measured using a PHERAstar multifunctional microplate reader (BMG Labtech, PHERAstar FS). The IC50 values for the inhibitory activity of the compounds were calculated using Graphpad Prism software, based on the compound concentration and the ratio of pERK/total ERK.
SMILES,IC50 [1] [nM],IC50 [2] [nM],IC50 [3] [nM],"IC50 ([1]; Homo sapiens, MIA PaCa-2, 72 h) [nM]","IC50 ([2]; Homo sapiens, NCI-H358, 120 h) [nM]","IC50 ([3]; Homo sapiens, NCI-H358, 3 h) [nM]"
"C=CC(=O)N1CCN2C(=O)c3c(F)c(F)c(-c4ccc(F)c5sc(N)c(C#N)c45)c4cnn(c34)CC[C@H]2C1 (atropisomer, axis not shown) [Example 11-P1, (R)-4-((S)-10-Acryloyl-1,2-difluoro-14-oxo-8,8a,9,10,11,12-hexahydro-7H,14H-pyrazino[1′,2′:5.6][1,5]diazocino[3,2,1-hi]indazol-3-yl)-2-amino-7-fluorobenzo[b]thiophene-3-carbonitrile]",2.71,2.25,7.67,–,–,–
"C=C(F)C(=O)N1CCN2C(=O)c3cc(F)c(-c4ccc(F)c5sc(N)c(C#N)c45)c4c(C)nn(c34)CC[C@H]2C1 (atropisomer, axis not shown) [Example 15-P1, (R)-2-Amino-7-fluoro-4-((S)-2-fluoro-10-(2-fluoroacryloyl)-4-methyl-14-oxo-8,8a,9,10,11,12-hexahydro-7H,14H-pyrazino[1′,2′:5,6][1,5]diazocino[3,2,1-hi]indazol-3-yl)benzo[b]thiophene-3-carbonitrile]",56.8,41.6,19.7,–,–,–
"C=C(F)C(=O)N1CCN2C(=O)c3cc(F)c(-c4ccc(F)c5sc(N)c(C#N)c45)c4c(C)nn(c34)CC[C@H]2C1 (atropisomer, axis not shown) [Example 15-P2, (S)-2-Amino-7-fluoro-4-((S)-2-fluoro-10-(2-fluoroacryloyl)-4-methyl-14-oxo-8,8a,9,10,11,12-hexahydro-7H,14H-pyrazino[1′,2′:5,6][1,5]diazocino[3,2,1-hi]indazol-3-yl)benzo[b]thiophene-3-carbonitrile]",7.75,4.21,3.94,–,–,–
"C=C(F)C(=O)N1CCN2C(=O)c3cc(F)c(-c4ccc(F)c5sc(N)c(C#N)c45)c4c(F)nn(c34)CC[C@H]2C1 (atropisomer, axis not shown) [Example 16-P2, (S)-2-Amino-4-((S)-2,4-difluoro-10-(2-fluoroacryloyl)-14-oxo-8,8a,9,10,11,12-hexahydro-7H,14H-pyrazino[1′,2′:5,6][1,5]diazocino[3,2,1-hi]indazol-3-yl)-7-fluorobenzo[b]thiophene-3-carbonitrile]",–,–,–,4.56,8,1.06
"C=C(F)C(=O)N1CCN2C(=O)c3cc(F)c(-c4ccc(F)c5sc(N)c(C#N)c45)c4c(Cl)nn(c34)CC[C@H]2C1 (atropisomer, axis not shown) [Example 17-P2, (S)-2-Amino-4-((S)-4-chloro-2-fluoro-10-(2-fluoroacryloyl)-14-oxo-8,8a,9,10,11,12-hexahydro-7H,14H-pyrazino[1′,2′:5,6][1,5]diazocino[3,2,1-hi]indazol-3-yl)-7-fluorobenzo[b]thiophene-3-carbonitrile]",–,–,–,1.88,1.87,2

# Other lines, results leading:
IC50 [1] [nM],IC50 [2] [nM],IC50 [3] [nM],"IC50 ([1]; Homo sapiens, MIA PaCa-2, 72 h) [nM]","IC50 ([2]; Homo sapiens, NCI-H358, 120 h) [nM]","IC50 ([3]; Homo sapiens, NCI-H358, 3 h) [nM]",SMILES
0.46,0.32,0.09,–,–,–,"C=CC(=O)N1CCN2C(=O)c3c(F)c(F)c(-c4ccc(F)c5sc(N)c(C#N)c45)c4cnn(c34)CC[C@H]2C1 (atropisomer, axis not shown) [Example 11-P2, (S)-4-((S)-10-Acryloyl-1,2-difluoro-14-oxo-8,8a,9,10,11,12-hexahydro-7H,14H-pyrazino[1′,2′:5.6][1,5]diazocino[3,2,1-hi]indazol-3-yl)-2-amino-7-fluorobenzo[b]thiophene-3-carbonitrile]"
–,–,–,20.5,11.4,0.76,"C=CC(=O)N1CCN2C(=O)c3cc(F)c(-c4ccc(F)c5sc(N)c(C#N)c45)c4c(F)cn(c34)CC[C@H]2C1 (atropisomer, axis not shown) [Example 13-P2, (S)-4-((S)-10-Acryloyl-2,4-difluoro-14-oxo-8,8a,9,10,11,12-hexahydro-7H,14H-pyrazino[1′,2′:5.6][1,5]diazocino[3,2,1-hi]indol-3-yl)-2-amino-7-fluorobenzo[b]thiophene-3-carbonitrile]"
–,–,–,9.16,9.57,1.09,"C=CC(=O)N1CCN2C(=O)c3cc(F)c(-c4ccc(F)c5sc(N)c(C#N)c45)c4c(C)cn(c34)CC[C@H]2C1 (atropisomer, axis not shown) [Example 18-P2, (S)-4-((S)-10-Acryloyl-2-fluoro-4-methyl-14-oxo-8,8a,9,10,11,12-hexahydro-7H,14H-pyrazino[1′,2′:5,6][1,5]diazocino[3,2,1-hi]indol-3-yl)-2-amino-7-fluorobenzo[b]thiophene-3-carbonitrile]"
–,–,–,4.9,5.65,0.97,"C=CC(=O)N1CCN2C(=O)c3cc(F)c(-c4ccc(F)c5sc(N)c(C#N)c45)c4c(Cl)cn(c34)CC[C@H]2C1 (atropisomer, axis not shown) [Example 19-P2, (S)-4-((S)-10-Acryloyl-4-chloro-2-fluoro-14-oxo-8,8a,9,10,11,12-hexahydro-7H,14H-pyrazino[1′,2′:5,6][1,5]diazocino[3,2,1-hi]indol-3-yl)-2-amino-7-fluorobenzo[b]thiophene-3-carbonitrile]"
1.66,4.94,3.67,–,–,–,"C=CC(=O)N1CCN2C(=O)c3cc(F)c(-c4ccc(F)c5sc(N)c(C#N)c45)c4nnn(c34)CC[C@H]2C1 (atropisomer, axis not shown) [Example 20-P1, (R)-4-((S)-9-Acryloyl-2-fluoro-12-oxo-7,7a,8,9,10,11-hexahydro-6H,12H-4,5,5a,9,11a-pentaazabenzo[5,6]cycloocta[1,2,3-cd]inden-3-yl)-2-amino-7-fluorobenzo[b]thiophene-3-carbonitrile]"
–,–,0.88,1.21,7.9,–,"C=CC(=O)N1CCN2C(=O)c3cc(F)c(-c4ccc(F)c5sc(N)c(C#N)c45)c4nnn(c34)CC[C@H]2C1 (atropisomer, axis not shown) [Example 20-P2, (S)-4-((S)-9-Acryloyl-2-fluoro-12-oxo-7,7a,8,9,10,11-hexahydro-6H,12H-4,5,5a,9,11a-pentaazabenzo[5,6]cycloocta[1,2,3-cd]inden-3-yl)-2-amino-7-fluorobenzo[b]thiophene-3-carbonitrile]"
